Data published in patent US20040147607A1, “Stable gabapentin having pH within a controlled range” (priority 2000, published 2004).

Experiments:
[1] = pH of purified gabapentin / gabapentin tablets; format: physicochemical
[2] = Storage stability: conversion of gabapentin to its corresponding lactam (HPLC vs. standard); format: physicochemical; conditions: gabapentin pure; for conversion of gabapentin to its corresponding lactam: after a year of storage at 25° C. and 60% relative humidity
Description: Gabapentin purified according to these procedures contains less than 0.5% lactam as measured by HPLC vs. standard. After a year of storage at 25° C. and 60% relative humidity, the conversion of gabapentin to its corresponding lactam is measured not to exceed 0.2% by weight of gabapentin.

cardiozole cramp = conditions: in animals; U.S. Pat. No. 4,024,175; cited from earlier work
[3] = according to Augart (U.S. Pat. No. 6,054,482); cited from earlier work
[4] = gabapentin pure after the reslurry in methanol (Examples 2, 3: basic agent added)
[5] = gabapentin pure after crystallization in methanol (Examples 11-16: basic agent added)

Row | SMILES | conversion of gabapentin to its corresponding lactam [2] | pH [1, 5] | other results
1 | NCC1(CC(=O)O)CCCCC1 [Example 1, 1-(aminomethyl)-1-cyclohexaneacetic acid] | ≤ 0.2 % by weight of gabapentin |  | pH [1, 4]: 6.84-7.04
2 | NCC1(CC(=O)O)CCCCC1 [Example 2, 1-(aminomethyl)-1-cyclohexaneacetic acid] | ≤ 0.2 % by weight of gabapentin |  | pH [1, 4]: 7.15
3 | NCC1(CC(=O)O)CCCCC1 [Example 3, 1-(aminomethyl)-1-cyclohexaneacetic acid] | ≤ 0.2 % by weight of gabapentin |  | pH [1, 4]: 6.8
4 | NCC1(CC(=O)O)CCCCC1 [Example 4, 1-(aminomethyl)-1-cyclohexaneacetic acid] | ≤ 0.2 % by weight of gabapentin |  | 
5 | NCC1(CC(=O)O)CCCCC1 [Example 11, 1-(aminomethyl)-1-cyclohexaneacetic acid] | ≤ 0.2 % by weight of gabapentin | 7.25 | 
6 | NCC1(CC(=O)O)CCCCC1 [Example 12, 1-(aminomethyl)-1-cyclohexaneacetic acid] | ≤ 0.2 % by weight of gabapentin | 7.08 | amount of lactam after storage ([2]; after a year of storage at 55° C. and 50% relative humidity): less than 0.5 % by weight
7 | NCC1(CC(=O)O)CCCCC1 [Example 13, 1-(aminomethyl)-1-cyclohexaneacetic acid] | ≤ 0.2 % by weight of gabapentin | 7.28 | amount of lactam after storage ([2]; after a year of storage at 25° C. and 50% relative humidity): less than 0.5 % by weight
8 | NCC1(CC(=O)O)CCCCC1 [Example 14, 1-(aminomethyl)-1-cyclohexaneacetic acid] |  | 7.03 | 
9 | NCC1(CC(=O)O)CCCCC1 [Example 15, 1-(aminomethyl)-1-cyclohexaneacetic acid] |  | 7.22 | 
10 | NCC1(CC(=O)O)CCCCC1 [Example 16, 1-(aminomethyl)-1-cyclohexaneacetic acid] |  | 7.17 | 
11 | NCC1(CC(=O)O)CCCCC1 [gabapentin, 1-(aminomethyl)-1-cyclohexaneacetic acid] |  |  | protective effect against cardiozole cramp (cardiozole cramp): protective effect against cardiozole cramp
12 | O=C1CC2(CCCCC2)CN1 [lactam] |  |  | toxicity compared with gabapentin [3]: higher toxicity than gabapentin
